{"source": "paper PMC11982498", "about": "(Redox Biology, 2025)", "key": {"[1]": {"target": "T1, Aβ1-42 (Homo sapiens, UniProt P05067)", "T1 construct": "Aβ1-42 was purchased from Gill Biochemicals Ltd (Shanghai, China); purchased Gill Biochemicals Ltd (Shanghai, China)", "T1 sequence (P05067 672-713 limits assumed)": "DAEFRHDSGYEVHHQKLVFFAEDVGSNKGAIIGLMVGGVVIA", "experiment": "Transmission electron microscopy of Aβ1-42 fibrils", "type": "biochemical", "details": "20 μM compound, 72 h", "procedure": "(§1) TEM experiment was carried out following a published method without significant modification, and the Aβ1-42 solution (100 μM) was co-incubated with B14 (20 μM) or Curcumin (20 μM) at 37 °C for 72h. The samples were dropped to a carbon-coated grid, stained with 2 % phosphotungstic acid, and then dried at room temperature. The morphology of Aβ1-42 fiber was observed on a JEM-1200EX II transmission electron microscope (Jeol, Japan).\nas §1, with “The” for “TEM experiment was carried out following a published method without significant modification, and the”, “B14 solution” for “B14”, “2%” for “2 %”"}, "[2]": {"test_system": "C-MYC gene transcription in SH-SY5Y cells", "experiment": "Real-time RT-PCR in SH-SY5Y cells, C-MYC", "type": "cell-based, human", "procedure": "SH-SY5Y cells were treated with or without B14, and total RNA was subsequently isolated and purified. Reverse transcription was performed using a cDNA synthesis kit. The relative transcription levels of the genes were evaluated through quantitative real-time PCR using the SYBR Green-based method, as described in the Supplementary Date. Details regarding the primer sequences and the raw data can be found in Table S7 and Table S8.\n^a -∆∆Ct = -[(Ct value of genes in treated sample - Ct value of genes in control) - (Ct value of β-actin in treated sample - Ct value of β-actin in control)]. ^b F: The relative expression fold.\nExperiment 1: SH-SY5Y cells were treated with different concentration of B14. The Ct values of BAX, VEGF, CMYC and BCL-2 were obtained.\nTotal RNA was extracted from cells and mice liver tissue using RNAiso Plus (Takara, 9109, Japan). Following sample homogenization, chloroform was added, and the solution was allowed to have phase separation into an upper aqueous layer (containing RNA), an interphase, and a lower organic layer (containing DNA and proteins). RNA was precipitated from the aqueous phase using isopropanol, while DNA was precipitated from the aqueous-organic interphase using ethanol. Complementary DNA (cDNA) was synthesized using the One-Step RT-PCR Kit (Takara, Cat#639503, Japan).\nQuantitative real-time polymerase chain reaction (qRT-PCR) was performed using the 2× RealStar SYBR Mixture (GenStar, Cat# A301-10, Guangzhou, China) on a LightCycler 480 II real-time PCR system (Roche, USA). Data were analyzed using the 2^−ΔΔCt method. Actin served as the internal control, and relative mRNA levels were normalized accordingly."}, "[3]": {"test_system": "bEnd.3", "experiment": "MTT cytotoxicity assay, bEnd.3", "type": "cell-based", "details": "BEND3; incubation for 48 h"}, "[4]": {"test_system": "RB (DNA, i motif) GCCGCCCAAAACCCCCCG", "experiment": "thiazole orange displacement", "details": "K+ 100 mM KCl plus potassium phosphate; BPES buffer, pH 5.5, 25 °C; 1 μM DNA, 1 μM TO; displacement only 1 %"}, "[5]": {"target": "HRAS promoter i-motif", "experiment": "SPR binding to HRAS promoter i-motif", "details": "MES buffer pH 5.5"}, "[6]": {"test_system": "F-BCL-2(G4) (DNA, G4) AGGGGCGGGCGCGGGAGGAAGGGGGCGGGAGCGGGGCTG", "experiment": "MST", "details": "K+ 100 mM; 50 mM Tris-HCl, pH 7.4; highest B14 concentration 50 μM"}, "[7]": {"test_system": "APP/PS1 transgenic mice", "experiment": "TEM of hippocampus microstructure", "type": "in vivo", "details": "vs model group", "from_the_text": "(§2) Five months old male APP/PS1 mice, weighing 25–33 g, were purchased from Guangdong Medical Laboratory Animal Center and housed in the Laboratory Animal Center of Sun Yat-sen University (Guangzhou, China) for experimentation. All procedures were approved by the Animal Care and Use Committee of Sun Yat-sen University and complied with legal requirements and national guidelines for the care and maintenance of laboratory animals (Approval No. SYSU-IACUC-2024-002032). The mice were housed in a specific pathogen-free environment with a controlled temperature of 22 ± 1 °C and a 12-h dark/light cycle. The mice were fed with a standard diet, and 30 mice were randomly divided into 6 groups (N = 5). Compound B14 was dissolved in saline and administered at doses of 10, 20, or 40 mg/kg. APP/PS1 male mice were grown until 6 months of age, and then injected intraperitoneally with compound B14 every other day for 60 days. Behavioral experiments were then conducted, and tissue specimens were collected for biochemical analysis.\nAfter the behavioral tests, the mice were anesthetized and perfused with 0.1 M pre-cooled phosphate-buffered saline for 5 min, followed by 4 % pre-cooled paraformaldehyde until the mice were stiff. The hippocampi were then extracted and fixed in 3 % pre-cooled glutaraldehyde solution for 6 h, cut into 0.5–1 mm^3 blocks, and post-fixed in 1 % osmium tetroxide for 60 min. […]"}, "[8]": {"test_system": "APP/PS1 transgenic mice", "experiment": "Morris water maze (MWM)", "type": "in vivo", "details": "B14 10, 20, 40 mg/kg i.p. every other day; vs model group", "from_the_text": "as §2, with “APP/PS1 male mice were grown until 6 months of age, and then injected intraperitoneally with compound B14 every other day for 60 days. Behavioral experiments were then conducted, and tissue specimens were collected for biochemical analysis.” left out\nThe spatial memory and learning abilities of the mice were assessed using Morris water maze (MWM), novel object recognition (NOR) and nesting experiments (NBT). The anxiety and depressive behaviors were evaluated through the open field test (OFT) and elevated plus maze (EPM). […]\nMorris water maze (MWM) system consisted of a heated circular pool, a target platform, and a video capture with analysis system. […] The time taken to find the platform (latency) was recorded. […] The platform was removed, and the mice were monitored for 60 seconds. […]"}}, "data": [{"smiles": "O=C(CCN1CCOCC1)Nc1ccc2c(c1)c(=O)c1cc(NC(=O)CCN3CCOCC3)ccc1n2-c1ccc2occc2c1", "note": "[Compound B14]", "values": [{"measurement": "ultrastructure of Aβ1-42 fibers (TEM)", "setting": "[1]", "value": "formation of protofibrils or amorphous oligomers was significantly reduced"}, {"measurement": "-∆∆Ct, C-MYC", "setting": "[2]; 6.25 μM B14", "value": -0.01}, {"measurement": "F = 2^-∆∆Ct (relative expression fold), C-MYC", "setting": "[2]; 6.25 μM B14", "value": 1.00}, {"measurement": "-∆∆Ct, C-MYC", "setting": "[2]; 12.5 μM B14", "value": -0.02}, {"measurement": "F = 2^-∆∆Ct (relative expression fold), C-MYC", "setting": "[2]; 12.5 μM B14", "value": 1.01}, {"measurement": "-∆∆Ct, C-MYC", "setting": "[2]; 25 μM B14", "value": -0.03}, {"measurement": "F = 2^-∆∆Ct (relative expression fold), C-MYC", "setting": "[2]; 25 μM B14", "value": 1.02}, {"measurement": "IC50", "setting": "[3]", "value": "> 100", "unit": "µM"}, {"measurement": "binding", "setting": "[4]", "value": "no"}, {"measurement": "Kd", "setting": "[5]", "value": "> 50", "unit": "µM"}, {"measurement": "KD", "setting": "[6]", "value": 59.75, "unit": "µM"}, {"measurement": "hippocampal ultrastructure (myelin, synapses, mitochondria; TEM)", "setting": "[7]", "value": "the degree of mitochondrial damage was much reduced"}, {"measurement": "escape latency (MWM)", "setting": "[8]", "value": "significantly short"}, {"measurement": "number for the mice to cross the platform (MWM)", "setting": "[8]", "value": "significantly increased"}]}]}
